# Laboratory results taken from publication PMC9860980, “Pharmacokinetics and Pharmacodynamics (PK/PD) of Corallopyronin A against Methicillin-Resistant Staphylococcus aureus” (Pharmaceutics, 2022).
# Like-named read-outs stand apart in the source and are kept apart here.
# How the values were obtained:
# [1] = Pharmacokinetics of CorA in plasma of CD-1 mice; format: in vivo; conditions: for Tmax / CL/F / Cmax / MRT / half-life / Vd/F / AUC0-t: CD-1 mice; for Vd/F: read-out: Vz/F_obs
# Protocol: (§1) For pharmacokinetic (PK) experiments, 6–8-week-old outbred female CD-1 mice (Charles River, Germany) were used. CorA was dissolved in PEG400/phosphate-buffered saline (PBS) (80:20 (v/v)). CorA was administered once daily at 60 mg/kg intraperitoneally (IP), 100 mg/kg IP, 100 mg/kg subcutaneously (SC) and 100 mg/kg perorally (PO). Moreover, CorA was administered at 30 mg/kg IP twice a day (BID) (administration time points t = 0 and 6 h after first dose). Animals (n = 3 per time point) receiving either 60 mg/kg IP or 100 mg/kg IP were euthanized at 10, 15, 30, 60 and 180 min after administration. Animals (n = 3 per time point) receiving 30 mg/kg IP BID were euthanized at 0.167, 0.25, 0.5, 1, 3, 5.75, 6.167, 6.25, 6.5, 7 and 9 h after first administration. Animals (n = 3 per time point) receiving 100 mg/kg SC or 100 mg/kg PO were euthanized at 0.25, 1, 2, 4 and 8 h after administration. At every time point blood was removed from the heart, collected into tubes coated with 0.5 M ethylenediaminetetraacetic acid (EDTA), immediately spun down at 15,870× g for 10 min at 4 °C and the resultant plasma transferred into a new tube. Furthermore, at every time point heart, lung, brain, liver, spleen, kidneys, and thigh muscles were removed and frozen in liquid nitrogen. For animals receiving 100 mg/kg PO also rectum (without feces), pharynx, skin, vaginal tract, subcutaneous fat tissue, visceral fat tissue and tibiae were removed and frozen in liquid nitrogen. Before removing the vaginal tract, a vaginal flush was performed.
# CorA plasma concentrations were quantified by HPLC-DAD with an Alliance e2695 separation module and a 2998 PDA detector (Waters, Eschborn, Germany). For the analysis, blood samples were centrifuged for 10 min at 4 °C and 3220× g. The generated plasma (20 µL) was mixed 1:3 with ice-cold acetonitrile, vortexed for 10 s and centrifuged for 25 min at 4 °C and 11,000× g. The supernatant was transferred into a HPLC vial and a sample volume of 5 µL was injected and quantified at a wavelength of 300 nm. A Waters XBridge® Shield RP18 column (3.5 μm, 2.1 × 100 mm, 130 A) was used at 30 °C. Two solvent gradients comprising mobile phase A (acetonitrile/water 5/95 with 5 mM ammonium acetate and 40 μL acetic acid per liter) and mobile phase B (acetonitrile/water 95/5 with 5 mM ammonium acetate and 40 μL acetic acid per liter) with a gradient from 70%A/30%B to 20%A/80%B, stepwise within 30 min and a flow rate of 0.3 mL/min were used. Data were analyzed by Empower 3 software and quantified using an external reference standard. No major matrix effects were seen when mixing ACN containing CorA with plasma.
# (§2) Caffeine was used as an internal standard.
# [2] = Biodistribution of CorA to organs/tissues of CD-1 mice (LC-MS/MS); format: in vivo
# Protocol: as §1, §2
# [3] = test system: MRSA; conditions: against MRSA; cited from earlier work
# [4] = female, mouse, plasma, 30 mg/kg IP (BID), mean ± SD
# [5] = female, mouse, plasma, 60 mg/kg IP, mean ± SD
# [6] = female, mouse, plasma, 100 mg/kg IP, mean ± SD
# [7] = female, mouse, plasma, 100 mg/kg PO
structure (smiles),measurement,setting,value
"C/C=C/C/C=C(\C)C(O)CC/C(C)=C/C=C(\C)C(=O)c1c(O)cc([C@H](C)CC/C=C/NC(=O)OC)oc1=O (some centres unmarked) [CorA, Corallopyronin A]",time CorA was found in plasma after dosing,[1]; 100 mg/kg PO,up to 8 h
same,exposure in plasma lower compared to the same dose administered IP or SC,[1]; 100 mg/kg PO vs 100 mg/kg IP or SC,3- to 4 fold
same,Tmax,"[1]; female, CD-1, mouse, plasma, ip, 30 mg/kg, 30 mg/kg IP (BID), mean ± SD",0.19 h
same,Tmax,"[1]; female, CD-1, mouse, plasma, ip, 60 mg/kg, 60 mg/kg IP, mean ± SD",0.19 h
same,Tmax,"[1]; female, CD-1, mouse, plasma, ip, 100 mg/kg, 100 mg/kg IP, mean ± SD",0.19 h
same,Tmax,"[1]; female, CD-1, mouse, plasma, po, 100 mg/kg, 100 mg/kg PO",0.5 ± 0.4 h
same,Tmax,"[1]; female, CD-1, mouse, plasma, sc, 100 mg/kg, 100 mg/kg SC, mean ± SD",3.33 ± 1.2 h
same,concentration at 8 h,"[1]; female, CD-1, mouse, plasma, subcutaneous, 100 mg/kg SC, 8 h after dosing",> 10 µg/mL
same,CL/F,[1]; [4],0.89 mL/min/kg
same,Cmax,[1]; [4],194 ± 15.6 µg/mL
same,MRT,[1]; [4],3.61 ± 0.6 h
same,half-life,[1]; [4],2.33 ± 0.3 h
same,Vd/F,[1]; [4],0.18 L/kg
same,CL/F,[1]; [5],1.8 mL/min/kg
same,Cmax,[1]; [5],416 ± 39.1 µg/mL
same,MRT,[1]; [5],1.55 ± 0.2 h
same,half-life,[1]; [5],1.1 ± 0.2 h
same,Vd/F,[1]; [5],0.17 L/kg
same,CL/F,[1]; [6],3.43 ± 0.4 mL/min/kg
same,Cmax,[1]; [6],349 ± 12.4 µg/mL
same,MRT,[1]; [6],2.51 ± 1 h
same,half-life,[1]; [6],1.87 ± 0.8 h
same,Vd/F,[1]; [6],0.54 ± 0.2 L/kg
same,CL/F,[1]; [7],16.4 ± 4 mL/min/kg
same,Cmax,[1]; [7],89.8 ± 43.8 µg/mL
same,MRT,[1]; [7],3.13 ± 0.2 h
same,half-life,[1]; [7],2.88 ± 0.6 h
same,AUC0-t,"[1]; female, mouse, plasma, 100 mg/kg PO, read-out: AUC 0-t",94 ± 27.1 µg·h/mL
same,Vd/F,[1]; [7],4.09 ± 1.3 L/kg
same,Cmax,"[1]; female, mouse, plasma, 100 mg/kg SC, mean ± SD",107 ± 59.2 µg/mL
same,AUC0-t,"[1]; plasma, 30 mg/kg IP (BID), mean ± SD",303.88 ± 21.9 µg·h/mL
same,AUC0-t,"[1]; plasma, 60 mg/kg IP, mean ± SD",463.87 ± 18.8 µg·h/mL
same,AUC0-t,"[1]; plasma, 100 mg/kg IP, mean ± SD",339.53 ± 28.4 µg·h/mL
same,Cmax lower compared to the same dose administered IP,"[1]; plasma, 100 mg/kg PO vs 100 mg/kg IP",3- to 4 fold
same,AUC0-t,"[1]; plasma, 100 mg/kg SC, mean ± SD",459.32 ± 238.2 µg·h/mL
same,CorA in vaginal flush,[2]; 100 mg/kg PO,not found
same,time initial peak concentrations in tissue are above the MIC,[2]; IP dosing,2 to 3 h
same,AUC,"[2]; brain, 30 mg/kg IP",0.05 µg·h/g
same,AUC,"[2]; brain, 60 mg/kg IP",0.10 µg·h/g
same,AUC,"[2]; brain, 100 mg/kg IP",0.10 µg·h/g
same,AUC,"[2]; brain, 100 mg/kg SC",0.24 µg·h/g
same,time tissue concentration exceeds the in vitro MIC against MRSA,"[2]; female, CD-1, mouse, in vivo, sc, 100 mg/kg",more than 9 h
same,Cmax,"[2]; female, CD-1, mouse, thigh muscle, thigh, 30 mg/kg IP",100 ng/g
same,Cmax,"[2]; female, CD-1, mouse, thigh muscle, thigh, 60 mg/kg IP",300 ng/g
same,Cmax,"[2]; female, CD-1, mouse, thigh muscle, thigh, 100 mg/kg IP",700 ng/g
same,Tmax,"[2]; female, CD-1, mouse, 100 mg/kg PO, thigh, heart, kidney, spleen, lung, liver, fat, rectum, pharynx, vaginal tract, skin, tibia, read-out: time of peak concentration in the investigated tissues",0.25 to 0.5 h
same,Cmax,"[2]; female, CD-1, mouse, brain, 30 mg/kg IP",40 ng/g
same,Cmax,"[2]; female, CD-1, mouse, brain, 60 mg/kg IP",70 ng/g
same,Cmax,"[2]; female, CD-1, mouse, brain, 100 mg/kg IP",100 ng/g
same,Cmax,"[2]; female, CD-1, mouse, brain, 100 mg/kg SC",150 ng/g
same,Cmax,"[2]; female, CD-1, mouse, heart, 30 mg/kg IP",1100 ng/g
same,Cmax,"[2]; female, CD-1, mouse, heart, 60 mg/kg IP",1800 ng/g
same,Cmax,"[2]; female, CD-1, mouse, heart, 100 mg/kg IP",3100 ng/g
same,Cmax,"[2]; female, CD-1, mouse, heart, 100 mg/kg SC",1480 ng/g
same,Cmax,"[2]; female, CD-1, mouse, kidney, 30 mg/kg IP",700 ng/g
same,Cmax,"[2]; female, CD-1, mouse, kidney, 60 mg/kg IP",1200 ng/g
same,Cmax,"[2]; female, CD-1, mouse, kidney, 100 mg/kg IP",1800 ng/g
same,Cmax,"[2]; female, CD-1, mouse, kidney, 100 mg/kg SC",1760 ng/g
same,Cmax,"[2]; female, CD-1, mouse, liver, 30 mg/kg IP",310 ng/g
same,Cmax,"[2]; female, CD-1, mouse, liver, 60 mg/kg IP",430 ng/g
same,Cmax,"[2]; female, CD-1, mouse, liver, 100 mg/kg IP",610 ng/g
same,Cmax,"[2]; female, CD-1, mouse, liver, 100 mg/kg SC",2300 ng/g
same,Cmax,"[2]; female, CD-1, mouse, lung, 30 mg/kg IP",1500 ng/g
same,Cmax,"[2]; female, CD-1, mouse, lung, 60 mg/kg IP",3100 ng/g
same,Cmax,"[2]; female, CD-1, mouse, lung, 100 mg/kg IP",4800 ng/g
same,Cmax,"[2]; female, CD-1, mouse, lung, 100 mg/kg SC",1270 ng/g
same,Cmax,"[2]; female, CD-1, mouse, spleen, 30 mg/kg IP",1400 ng/g
same,Cmax,"[2]; female, CD-1, mouse, spleen, 60 mg/kg IP",2100 ng/g
same,Cmax,"[2]; female, CD-1, mouse, spleen, 100 mg/kg IP",4900 ng/g
same,Cmax,"[2]; female, CD-1, mouse, spleen, 100 mg/kg SC",600 ng/g
same,AUC,"[2]; heart, 30 mg/kg IP",1.08 µg·h/g
same,AUC,"[2]; heart, 60 mg/kg IP",1.83 µg·h/g
same,AUC,"[2]; heart, 100 mg/kg IP",2.10 µg·h/g
same,AUC,"[2]; heart, 100 mg/kg SC",3.53 µg·h/g
same,AUC,"[2]; kidney, 30 mg/kg IP",0.49 µg·h/g
same,AUC,"[2]; kidney, 60 mg/kg IP",0.95 µg·h/g
same,AUC,"[2]; kidney, 100 mg/kg IP",1.01 µg·h/g
same,AUC,"[2]; kidney, 100 mg/kg SC",5.61 µg·h/g
same,AUC,"[2]; liver, 30 mg/kg IP",0.40 µg·h/g
same,AUC,"[2]; liver, 60 mg/kg IP",0.57 µg·h/g
same,AUC,"[2]; liver, 100 mg/kg IP",0.59 µg·h/g
same,AUC,"[2]; liver, 100 mg/kg SC",12.44 µg·h/g
same,AUC,"[2]; lung, 30 mg/kg IP",1.2 µg·h/g
same,AUC,"[2]; lung, 60 mg/kg IP",3.56 µg·h/g
same,AUC,"[2]; lung, 100 mg/kg IP",2.67 µg·h/g
same,AUC,"[2]; lung, 100 mg/kg SC",3.85 µg·h/g
same,time CorA levels above the MIC,"[2]; lung, 100 mg/kg SC",~ 4 h
same,time CorA levels exceed the in vitro MIC,"[2]; lung, all three doses administered IP (30, 60, 100 mg/kg)",around 3 h
same,AUC,"[2]; spleen, 30 mg/kg IP",0.77 µg·h/g
same,AUC,"[2]; spleen, 60 mg/kg IP",1.34 µg·h/g
same,AUC,"[2]; spleen, 100 mg/kg IP",2.55 µg·h/g
same,AUC,"[2]; spleen, 100 mg/kg SC",1.4 µg·h/g
same,AUC,"[2]; thigh, 30 mg/kg IP",0.19 µg·h/g
same,time CorA levels exceed the MIC,"[2]; thigh, 30 mg/kg IP",about one hour
same,AUC,"[2]; thigh, 60 mg/kg IP",0.49 µg·h/g
same,time CorA levels above the MIC,"[2]; thigh, 60 mg/kg IP",around 3 h
same,AUC,"[2]; thigh, 100 mg/kg IP",0.60 µg·h/g
same,time CorA levels above the MIC,"[2]; thigh, 100 mg/kg IP",around 3 h
same,peak concentrations in thigh above the in vitro determined MIC,"[2]; thigh, 100 mg/kg IP, MIC 0.125 µg/mL",3–5 ×
same,CorA levels in thigh tissue,"[2]; thigh, 100 mg/kg SC",no CorA levels were detected
same,in vitro minimal inhibitory concentration (MIC),[3],0.125 µg/mL
